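Growth conditions: 96-well plates. Treatment: test compound, 48 hours, 5 concentrations. Analysis: linear interpolation between bracketing concentrations; unreached endpoints set to highest concentration. Here, GI50 denotes the concentration required for 50% inhibition of growth.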 The source made the active and inactive calls. Cut-off read from the data, not from the text of the source: active = GI50 up to about 1.1 µM and inactive = higher.
Experiments:
Assay in all cases: DTP human tumour cell line panel, 48 h
786-0 = test system: 786-0
ACHN = test system: ACHN
CAKI-1 = test system: CAKI-1
HCC 2998 = test system: HCC 2998
HCT-116 = test system: HCT-116
HOP-62 = test system: HOP-62
IGROV-1 = test system: IGROV-1
K562 = test system: K562
KM-20L2 = test system: KM-20L2
KM12 = test system: KM12
M14 = test system: M14
NCI-H522 = test system: NCI-H522
OVCAR-4 = test system: OVCAR-4
RXF 393 = test system: RXF 393
SF-268 = test system: SF-268
SNB-75 = test system: SNB-75
TK-10 = test system: TK-10
RPMI-8226 = test system: RPMI-8226
NCI/ADR-RES = test system: NCI/ADR-RES
T47D = test system: T47D

Measured: GI50

COC(=O)/C(=N\NC(N)=O)C(C(=O)C=C(C)C)C(=O)C(=O)Nc1ccc(Cl)c(Cl)c1 (stereo not drawn)
inactive: 786-0 > 100 µM | ACHN > 100 µM | CAKI-1 > 100 µM | HCC 2998 > 100 µM | HCT-116 > 100 µM | HOP-62 > 100 µM | IGROV-1 > 100 µM | K562 > 100 µM | KM-20L2 > 100 µM | KM12 > 100 µM | M14 > 100 µM | NCI-H522 > 100 µM | OVCAR-4 > 100 µM | RXF 393 > 100 µM | SF-268 > 100 µM | SNB-75 > 100 µM | TK-10 > 100 µM

C[C@]12CCC[C@H](OC=O)C1(O)C[C@H](C(=O)O)CC2 (stereo partly drawn)
inactive: 786-0 > 100 µM | ACHN > 100 µM | CAKI-1 > 100 µM | HCC 2998 > 100 µM | HCT-116 > 100 µM | HOP-62 > 100 µM | IGROV-1 > 100 µM | K562 > 100 µM | KM-20L2 19 µM | KM12 > 100 µM | M14 > 100 µM | NCI-H522 > 100 µM | OVCAR-4 > 100 µM | RPMI-8226 > 100 µM | RXF 393 > 100 µM | SF-268 > 100 µM | SNB-75 > 100 µM | TK-10 > 100 µM

COC(=O)/C(=N/NC(=O)C[N+](C)(C)C)C(C(=O)OC)C(=O)C(=O)Nc1ccc(F)cc1 (stereo not drawn)
inactive: 786-0 > 100 µM | ACHN > 100 µM | CAKI-1 > 100 µM | HCC 2998 > 100 µM | HCT-116 > 100 µM | HOP-62 > 100 µM | IGROV-1 > 100 µM | K562 > 100 µM | KM-20L2 > 100 µM | KM12 > 100 µM | M14 > 100 µM | NCI-H522 > 100 µM | OVCAR-4 > 100 µM | RPMI-8226 > 100 µM | RXF 393 > 100 µM | SF-268 > 100 µM | SNB-75 > 100 µM | TK-10 > 100 µM

Cc1ccc(S(=O)(=O)SCc2ccccc2)cc1
inactive: 786-0 17.3 µM | ACHN 32.8 µM | CAKI-1 34.9 µM | HCC 2998 24.2 µM | HCT-116 7.6 µM | HOP-62 49.7 µM | IGROV-1 39.1 µM | K562 4.57 µM | KM-20L2 22.9 µM | KM12 25.7 µM | M14 17.9 µM | NCI-H522 7.91 µM | OVCAR-4 15.5 µM | RPMI-8226 10.1 µM | RXF 393 28.4 µM | SF-268 34 µM | SNB-75 > 49.3 µM | TK-10 > 55.7 µM

CC1(C)OC(COCCOCCCCCO)C(COCCOCCCCCO)O1 (stereo not drawn)
inactive: 786-0 > 100 µM | ACHN > 100 µM | CAKI-1 > 100 µM | HCC 2998 > 100 µM | HCT-116 > 100 µM | HOP-62 > 100 µM | IGROV-1 > 100 µM | K562 > 100 µM | KM-20L2 > 100 µM | KM12 > 100 µM | M14 > 100 µM | NCI-H522 > 100 µM | OVCAR-4 > 100 µM | RPMI-8226 > 100 µM | RXF 393 > 100 µM | SF-268 > 100 µM | SNB-75 > 100 µM | TK-10 > 100 µM

Cc1ccccc1NC(=O)Cc1nc2ccccc2s1
inactive: 786-0 17.7 µM | ACHN 15.4 µM | CAKI-1 17.7 µM | HCC 2998 34 µM | HCT-116 16.5 µM | HOP-62 > 10 µM | IGROV-1 > 10 µM | K562 18.3 µM | KM-20L2 18.4 µM | KM12 16.7 µM | M14 12.6 µM | NCI-H522 15.3 µM | OVCAR-4 17.3 µM | RXF 393 18.9 µM | SF-268 17 µM | SNB-75 61 µM | TK-10 23.8 µM

[Zn+2][N+]12CCN3CCN4CCN(CC1)[PH]432 (stereo not drawn)
inactive: 786-0 > 100 µM | ACHN > 100 µM | HCC 2998 > 100 µM | HCT-116 > 100 µM | HOP-62 > 100 µM | IGROV-1 > 100 µM | K562 > 100 µM | KM-20L2 > 100 µM | KM12 > 100 µM | M14 > 100 µM | NCI-H522 > 100 µM | OVCAR-4 > 100 µM | RPMI-8226 > 100 µM | RXF 393 > 100 µM | SNB-75 > 100 µM | TK-10 > 100 µM

O=C(O)CNCc1c2ccccc2nc2ccccc12
inactive: 786-0 36 µM | ACHN 31.1 µM | CAKI-1 35.7 µM | HCC 2998 58.6 µM | HCT-116 12.1 µM | HOP-62 43.9 µM | IGROV-1 45.9 µM | K562 8.85 µM | KM-20L2 29.3 µM | KM12 32.3 µM | M14 47.6 µM | NCI-H522 22 µM | NCI/ADR-RES 26.5 µM | OVCAR-4 31.7 µM | RPMI-8226 8.43 µM | RXF 393 32.4 µM | SF-268 32.7 µM | SNB-75 32.8 µM | T47D 31.7 µM | TK-10 61.9 µM

CC1CC(c2ccccc2)=Nc2ccccc2S1(=O)=O (stereo not drawn)
inactive: 786-0 17.2 µM | ACHN 16 µM | CAKI-1 22 µM | HCC 2998 5.2 µM | HCT-116 1.75 µM | HOP-62 20.3 µM | IGROV-1 17.7 µM | K562 19.4 µM | KM-20L2 17.8 µM | KM12 16.3 µM | M14 20.7 µM | NCI-H522 17.3 µM | OVCAR-4 19 µM | RPMI-8226 2.16 µM | RXF 393 15.3 µM | SF-268 16.9 µM | SNB-75 19.2 µM | TK-10 23 µM

Cc1cc2c(c(C(=O)O)c1C)-c1cccc(Cl)c1C2=O
inactive: 786-0 > 100 µM | ACHN > 100 µM | CAKI-1 > 100 µM | HCC 2998 > 100 µM | HOP-62 > 100 µM | IGROV-1 > 100 µM | K562 > 100 µM | KM-20L2 > 100 µM | KM12 > 100 µM | M14 > 100 µM | NCI-H522 > 100 µM | OVCAR-4 > 100 µM | RPMI-8226 > 100 µM | RXF 393 > 100 µM | SF-268 > 100 µM | SNB-75 > 100 µM | TK-10 > 100 µM

CN(C)C(c1ccccc1)C(O)c1ccccc1 (stereo not drawn)
inactive: 786-0 > 100 µM | ACHN > 100 µM | CAKI-1 > 100 µM | HCC 2998 > 100 µM | HOP-62 > 100 µM | IGROV-1 > 100 µM | K562 > 100 µM | KM-20L2 > 100 µM | KM12 > 100 µM | M14 > 100 µM | NCI-H522 > 100 µM | RPMI-8226 > 100 µM | RXF 393 > 100 µM | SF-268 > 100 µM | SNB-75 75.5 µM | TK-10 > 100 µM
